What is called Ki is the dissociation constant of the complex between target and ligand, obtained from inhibition or displacement.

In the test the target is T1, recombinant soluble rat CD73 (Rattus norvegicus, UniProt P21588).
T1 construct: glutathione-S-transferase fusion protein of soluble rat CD73; glutathione-S-transferase (GST); made in house; host or cells: Sf9 insect cells
T1 sequence (P21588 29-551 limits assumed): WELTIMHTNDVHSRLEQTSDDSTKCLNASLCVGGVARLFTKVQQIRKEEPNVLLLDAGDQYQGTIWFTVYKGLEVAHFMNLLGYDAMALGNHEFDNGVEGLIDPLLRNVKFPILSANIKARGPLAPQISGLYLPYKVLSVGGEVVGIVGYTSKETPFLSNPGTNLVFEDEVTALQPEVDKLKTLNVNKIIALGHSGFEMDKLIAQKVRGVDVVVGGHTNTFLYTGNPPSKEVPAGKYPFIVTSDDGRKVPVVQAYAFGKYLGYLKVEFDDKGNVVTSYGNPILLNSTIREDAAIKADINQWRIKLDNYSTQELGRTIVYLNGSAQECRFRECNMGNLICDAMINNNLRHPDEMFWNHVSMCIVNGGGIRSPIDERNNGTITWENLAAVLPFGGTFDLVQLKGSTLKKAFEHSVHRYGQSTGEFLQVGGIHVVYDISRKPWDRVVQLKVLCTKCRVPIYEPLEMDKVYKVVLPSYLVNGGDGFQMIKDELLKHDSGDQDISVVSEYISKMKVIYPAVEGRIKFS
The test can be described thus: CD73 enzyme inhibition assay with [2,8-3H]AMP, soluble rat CD73. It counts as biochemical. Conditions: [2,8-3H]AMP (5 μM) as substrate; read-out: Rat soluble CD73 Ki ± SEM. Here is the method:
Compound 2b, its precursor 1, and 20 were investigated for their CD73-inhibitory potency using tritium-labeled AMP as a substrate.^20 After incubation with CD73, non-hydrolyzed substrate and inorganic phosphate were precipitated using a solution of lanthanum chloride, and the precipitate was separated from the solution containing the reaction product [2,8-^3H]adenosine by filtration through GF/B glass fiber filters (WhatmanTM GE Healthcare, Chicago, IL, USA) using a cell harvester (M-48, Brandel, Gaitherburg, MD, USA). The filtrates (ca. 1.8 mL each) were transferred to scintillation vials, scintillation cocktail ULTIMA Gold XR (PerkinElmer, Waltham, MA, USA) was added (5 mL), and the radioactivity esd quantified by scintillation counting. CD73 preparations were (1) recombinant soluble human CD73,^13 (2) recombinant soluble rat CD73,^21 both expressed in Spodoptera frugiperda 9 (Sf) cells, (3) membrane preparations of MDA-MB-231 cells,^16 a human triple-negative breast cancer cell line with high expression of CD73,^18 and (4) membrane preparations of the 4T1.2 cell line, a mouse CD73-expressing breast cancer cell line.^22 The potency of the compounds was determined by measurements of full concentration-inhibition curves. K values were calcuated from the obtained IC50 values employing the Cheng-Prusoff equation.^23 […]

The structures appear in SMILES notation.

Turning to `CCCN(Cc1ccc(-c2cn(CCF)nn2)cc1)c1nc(Cl)nc2c1ncn2[C@@H]1O[C@H](COP(=O)(O)CP(=O)(O)O)C(O)C1O` (some centres unmarked) [Compound 2], the inhibitory constant (Ki) worked out at 6.09 ± 0.74 nM.

Regarding `O=C(NCCCCCCNC(=O)c1ccc2c(c1)C1(OC2=O)c2ccc(O)cc2Oc2cc(O)ccc21)c1ccc(CNc2nc(Cl)nc3c2ncn3[C@@H]2O[C@H](COP(=O)(O)CP(=O)(O)O)[C@@H](O)[C@H]2O)cc1` [Compound 20, (((((2R,3S,4R,5R)-5-(2-chloro-6-((4-((6-(3′,6′-dihydroxy-3-oxo-3H-spiro[isobenzofuran-1,9′-xanthene]-6-carboxamido)-hexyl)carbamoyl)benzyl)amino)-9H-purin-9-yl)-3,4-dihydroxytetrahydrofuran-2-yl)methoxy)(hydroxy)phosphoryl)methyl)phosphonic acid], the Ki was 18 ± 1.43 nM.

For the origin of these results see patent publication US20250382322A1, “DIAGNOSTICS FOR DETECTING ECTO-5'-NUCLEOTIDASE (CD73)” (EBERHARD KARLS UNIVERSITÄT TÜBINGEN, priority 2022, published 2025).
